Data from patent US5288723A, “A composition and a method of using veratridine and epinephrine as a local anesthetic” (priority 1991, dated 1994).
“Also recorded” adds a separate entry of the source. Like-named read-outs stand apart in the source and are kept apart here.

Legend:
[1] = system: B-fibers of rabbit vagus nerve; assay: Extracellular recording of compound action potentials (APc), desheathed vagus nerve, B-fibers; set-up: species or system New Zealand white rabbit; details: for inhibition at 0.5 µM / activity at 0.5 µM: Oryctolagus cuniculus, 0.5 μM VTD; for inhibition at 0.5 µM: 70 min, 50 Hz, mean ± SEM; for activity at 0.5 µM: read-out: Amplitude of single APc elevation relative to amplitude at beginning of VTD exposure
Experimental: (§1) Adult male New Zealand white rabbits (3±0.5 kg) were pretreated intramuscularly with a mixture of ketamine (200 mg), xylazine (20 mg) and atropine (0.4 mg) for sedation. Ten minutes after this treatment, the animals were anesthetized with diethyl ether. After cessation of respiration, a longitudinal skin incision was made, and the cervical portion of both vagus nerves was dissected. The vagus nerves were temporarily stored at room temperature (22° C.) in a beaker containing modified HEPES Liley (HL) solution stirred constantly by aeration with a mixture of 95% oxygen and 5% carbon dioxide.
(§2) The modified HL solution used for bathing the nerve and subsequent drug perfusion consisted of (in mM): NaCl, 118.0; KCl, 5.0; CaCl2 2H2 0, 2.0; MgCl2 6H2 0, 1.0; α-D(+)-glucose, 11.0; NaHC03, 25.0; and N-2-hydroxy-ethylpiperazine-N-2-ethanesulfonic acid (HEPES) buffer, 5.0 mM. The pH was adjusted to 7.4±0.05 by addition of 1 N NaOH. The perfusion solution was bubbled with a gas mixture of 95% oxygen and 5% carbon dioxide at a vigorous rate just before flowing onto the nerve. The pH was stabilized by the HEPES buffer and maintained at 7.4.
(§3) VTD free base (no. V-5754, lot 58F-7828, Sigma, St. Louis, Mo.) was stored in a desiccator below 0° C. and was used to prepare a 2 mM stock solution in dimethyl sulfoxide [DMSO], Fisher Scientific, lot 861316), which also was stored at below 0° C. VTD, a steroidal alkaloid (FIG. 2A) that is produced by certain lilies, has a solubility limited to approximately 10^-3 M in aqueous slat solutions [Kupchan and By, "The Veratrum Group," in Alkaloids, Vol. 10, Manske, R.H.F. (ed.), New York, Academic Press (1968), pp. 193-285]. The stock VTD solution was diluted to final concentrations of 0.2-10 μM by the addition of HL. The maximum equivalent content of DMSO is 0.5%, and in three control experiments we detected no change in electrophysiologic behavior with 1% DMSO.
(§4) The nerves were cleaned and desheathed by microdissection before mounting in an airtight chamber (FIG. 2B) [Gissen et al., Anesthesiology 53:467-474 (1980)]. Petroleum jelly (White Petrolatum, Denison Laboratories) seals separated a central, 11-mm length of the nerve from the lateral pools, used for stimulating and recording with electrodes made of platinum wire. The central section of the chamber (volume 0.25 ml) was perfused with HL solution at 0.5 ml.min.^-1. The lateral pools containing the moistened ends of the nerves adsorbed to the electrodes were filled with paraffin oil. The APc s were propagated over 21 mm, from the stimulating to the recording electrodes, with the proximal recording electrodc located 4.5 mm from the edge of the central, drug exposure chamber. Thus, measured APc s were conducted in nerve exposed to drug for half of the conduction pathway, and had been conducting through drug-free medium over a distance containing at least two or three nodes of Ranvier (in the fastest-conducting fibers), before reaching the recording electrodes.
(§5) The signal from the nerve was amplified 50 times (model AK 475 operational amplifier, Metametrics, Carlisle, Mass.) and passed to the oscilloscope preamplifiers (model 5A 22N, Tektronix). The preparation was not considered acceptable unless the APc signals from the nerve exceeded 1.5 mV for A-fibers, 0.5 mV for B-fibers, and 0.3 mV for C-fibers.
(§6) Each nerve was exposed to only one VTD concentration, and each concentration was tested in four or five separate nerves, except in tie sheathed nerves, for which only two nerves were used. The temperature was 20°-22° C.
The standard protocol used for testing the action of VTD was to record the APc elevations in control HL solution for 30-60 min. before adding VTD; for 60-75 min. during VTD application; and for 60-75 min. after replacement with VTD-free HL. […]

rabbit vagus nerve = assay: Extracellular recording of compound action potentials (APc), vagus nerve as a whole; set-up: species or system New Zealand white rabbit
Experimental: as §1, §2, §3
as §4, with “The APc s were propagated over 21 mm, from the stimulating to the recording electrodes, with the proximal recording electrodc located 4.5 mm from the edge of the central, drug exposure chamber.” left out, “electrodes. […]” for “electrodes.”

angiotensin II receptors = details: reported by Ball et al.; cited from earlier work
rat sciatic nerve = assay: Sensory block of rat sciatic nerve in vivo (nocifensive withdrawal reflex to pinch of the foot pad); set-up: species or system Male Sprague-Dawley rats; details: for fraction block, SENSORY / duration, SENSORY / onset, SENSORY: 0.1 ml; for duration, SENSORY / onset, SENSORY: mean ± SEM
Experimental: (§7) Male Sprague-Dawley rats (200-250 g) were divided into 4 groups of 10 each. 0.1 ml of VTD alone at 0.2, 0.5 or 0.7 mM or vehicle (saline) was injected at the depression between the femoral head and the hip. The same animals were injected with VTD with epinephrine (EPI, 1:200,000) one week later, using the previously uninjected leg. Motor and sensory functions were rated by the respective monitoring of toe curling and/or foot dragging, and by testing the nocifensive withdrawal reflex to pinch of the foot pad of the injected hindlimb. Saline alone affected neither function.

[2] = system: vagus nerve with intact sheath (C-fibers); assay: Extracellular recordings from sheathed nerves; set-up: species or system rabbit
Experimental: as §4, §5, §6
We tested the ability of VTD to penetrate the tissues ensheathing the vagus nerve. Nerves with intact sheaths were arranged in the same extracellular recording chamber as had been used for the desheathed nerve studies just described. Because of the electrical isolating qualities of the sheath, stimulus requirements are greater and the recorded APC s are smaller, but have the same latency from stimulation as in the desheathed nerves. […] However, the onset of the effect was much slower and the VTD dose requirement much higher: 2 μM VTD took approximately 30 min. to affect the C-fibers detectably, and 10 μM took approximately 15 min. This is expected in a lipophilic base for which more than 90%, on average, of the drug molecules are ionized [Kupchan and By, "The Veratrum Group," in Alkaloids, Vol. 10, Manske, R.H.F. (ed.), New York, Academic Press (1968), pp. 193-285].

[3] = Toxic signs (salivation) in rats after sciatic nerve injection; format: in vivo, Male Sprague-Dawley rats; details: for fraction salivating: 0.1 ml
Experimental: as §7

[4] = on average; cited from earlier work

## COc1ccc(C(=O)OC2CCC3(C)C4CCC5C6(O)CC(O)C7(O)C(CN8CC(C)CCC8C7(C)O)C6(O)CC53OC24O)cc1OC (centres unmarked) [VTD, veratridine]
[1]; 75 min. of washing with drug-free HL
  Reversal of use-dependent effects on B-fibers by washing: not abolished completely
[1]; B-fibers, 0.5 μM, 60 min. in VTD, P>0.05
  Single-stimulus APc after VTD compared with no-VTD controls: no significant difference
[1]; B-fibers, VTD-free HL wash
  Reversal of use-dependent depression by washing: did not reverse
[1]; B-fibers, after 70 min. in VTD, P < 0.001 vs control, read-out: Percent inhibition of the tenth APc in a train compared to the first, VTD
  inhibition at 0.5 µM: 55 ± 2.8%
[1]; B-fibers, after 70 min. wash, read-out: Percent inhibition of the tenth APc in a train compared to the first, HL (Wash)
  inhibition at 0.5 µM: 52.6 ± 3.7%
[1]; B-fibers, during VTD exposure
  activity at 0.5 µM: 105 ± 23%
[1]; B-fibers, wash period
  activity at 0.5 µM: 108 ± 31%
Rabbit vagus nerve; VTD alone, use-dependent
  Fiber preference of impulse inhibition: highly preferential for C-fibers
Rabbit vagus nerve; after termination of rapid stimulation
  Time to recover from VTD-induced use-dependent effects: tens of seconds
Rabbit vagus nerve; residual bupivacaine block
  Effect of VTD added to a nerve during recovery from bupivacaine: potentiated rather than antagonized the residual block
Rabbit vagus nerve; single stimuli, 0.5 μM
  Effect on impulses conducted in response to a single stimulus: only a small effect; also recorded: unaffected
Angiotensin II receptors
  Inhibition of angiotensin II receptors: selective inhibitor of angiotensin II receptors
Rat sciatic nerve; VTD alone, vs motor block
  Frequency of sensory block (summary): less frequently
Rat sciatic nerve; [VTD] 0.2 mM
  fraction block, SENSORY: 1/10
  duration, SENSORY: 51 min
  onset, SENSORY: 13 min
Rat sciatic nerve; [VTD] 0.5 mM
  fraction block, SENSORY: 2/10
  duration, SENSORY: 224 ± 44 min
  onset, SENSORY: 3 ± 1 min
Rat sciatic nerve; [VTD] 0.7 mM
  fraction block, SENSORY: 4/10
  duration, SENSORY: 115 ± 1 min
  onset, SENSORY: 10 ± 2 min
Rat sciatic nerve; rat sciatic nerve
  Block of nocifensive reflexes compared with bupivacaine and lidocaine: blocked less predictably
[2]; 2 μM VTD
  Time to affect the C-fibers detectably, sheathed nerve: approximately 30 min.
[2]; 10 μM VTD
  Time to affect the C-fibers detectably, sheathed nerve: approximately 15 min.
[2]; 10 Hz, 60-min. exposure to 10 μm VTD
  Use-dependent reduction as % of that achieved at steady state on a desheathed nerve by 0.2 μm VTD: approximately 30%
[2]; intact sheath
  C-fiber elevation / APc inhibition in sheathed nerves: inhibited selectively; also recorded: progressively inhibited in a use-dependent fashion
[2]; sheathed vs desheathed nerve
  Reduction of rate of penetration into the nerve by the sheath: at least 50 fold
[2]; vs desheathed nerves
  Rate of VTD action with intact nerve sheath: far less than in desheathed nerves
[2]; wash-out period after 75 min. exposure, both nerves tested, up to
  Duration of steady-state effect in drug-free solution: up to 3 h
[3]; 0.5 and 0.7 mM VTD alone
  Toxic signs, including profuse salivation: 14/20
[3]; [VTD] 0.2 mM
  fraction salivating: 0/10
[3]; [VTD] 0.5 mM
  fraction salivating: 4/10
[3]; [VTD] 0.7 mM
  fraction salivating: 10/10
[4]
  Fraction of drug molecules ionized: more than 90%
